According to patent US9458437B2, “Neuroprotective peptides that inhibit interaction between palmitoyl acyl transferase zinc-finger DHHC type containing 17 (zD17) and c-jun N-terminal kinase (JNK)” (The University of British Columbia, priority 2011, dated 2016):

Columns and labels:
[1] = system: middle cerebral artery occlusion (MCAo); assay: transient MCAo in SD rats, adhesive removal test (ART); type: in vivo, Sprague-Dawley rat
Description: Adult male Sprague-Dawley (SD) rats weighing 250-290 g were employed for transient middle cerebral artery occlusion. Rats were anaesthetized with 5% isofluorane and maintained with 2% isofluorane in 70% N2O and 30% O2 using a face mask. 5 mg/kg ketoprofen was given pre-surgery to block pain. Rectal temperature was maintained at 37° C. during surgery with a homeothermic blanket system (Harvard Apparatus™, Holliston, Mass.). The scalp was incised at the midline and the skull was exposed. The skull was thinned with a dental drill at a region ipsilateral to the expected ischemia zone (2 mm posterior and 5 mm lateral from the bregma). A laser probe of the Doppler flowmeter (Perimed™, Jäffälla, Sweden) was placed at this location during surgery to detect cerebral blood flow (CBF) (Nagal et al., 2010). Transient MCAo was induced using a method of intraluminal vascular occlusion described elsewhere (Aarts et al., 2002; Belayev et al., 1996; and Longa et al., 1989). Briefly, a poly-L-lysine coated 3-0 monofilament nylon suture (Harvard Apparatus™, Holliston, Mass.) with a rounded tip was advanced from the left common carotid artery into the internal carotid artery until a sudden drop of CBF was noted, indicating the blockade of the origin of the MCA. The success of induction of ischemia was confirmed by a fall of CBF to less than 25% of baseline level and by neurological assessment scores during MCAo (1 h after the onset). Two hours after MCAo, rats were re-anaesthetized and the suture was removed to allow reperfusion, confirmed by the increase of CBF at the same area.
Peptides were synthesized by PepMetric Technologies™ or GL Biochem™ (Shanghai, China). Peptides were prepared freshly in saline on the day of experiment at a stock concentration of 1 mg/ml. 1 mg/kg peptides were administrated at indicated times (30 min before, 2 h after or 6 h after the onset of ischemia) by a single intravenous injection at rat tails. NIMoEscr or NIMoEsh were injected at 4 h after MCAo onset to randomly chosen rats. For long-term studies, peptides were given 2 h after MCAo onset. Injections of NIMoEscr and NIMoEsh were made, brain damage was assessed and functional evaluations performed in a double-blind manner To examine the delivery of the peptide into the brain, 5 mg/kg FITC-labelled NIMoE or only saline was intravenously injected 1 h before perfusion. The rats were then perfused with PBS followed by fixation solution (4% paraformaldehyde in PBS). Brains were removed, postfixed in fixation solution for 2 h and then soaked in 20% sucrose-PBS buffer at 4° C. for 24 h. After rapid freezing in Tissue-Tek™ embedding medium (Sakura™, Torrance, Calif.) on dry ice, 20 μm sections were cut on a cryostat (Leica™ CM3050, Ontario, Canada) and examined for FITC fluorescence by a laser microscopy (Zeiss™, Axiovert 200).
All animals were tested for neurological function during (1 h after onset) and 24 h after MCAo. Motor, sensory and coordination capacities were evaluated with modified Neurological Severity Scores (NSS) (Watanabe et al., 2004; Bederson et al., 1986). […] Coordination functions were assessed with 3 tests including a foot fault test, edge test and balance beam. Performance in the tests was evaluated on a cumulative scale from 0 to 2 (10 tests), except for two tests (tail suspension and balance beam in which scores ranged from 0 to Sand 0 to 4, respectively). […] The time spent on removing the tape from paw within 2 min was recorded.

[2] = system: middle cerebral artery occlusion (MCAo); assay: transient MCAo in SD rats, infarct volume (TTC histology); type: in vivo, Sprague-Dawley rat
neuronal cultures = assay: LDH assay and PI staining, NMDA excitotoxicity-induced neuronal cell death; type: cell-based, rat; conditions: for excitotoxicity-induced cell death as measured by LDH release and PI staining: pretreatment, NMDA challenge 1 h, 24 h survival
Description: For biochemical studies, neurons were seeded in six-well culture plates with a density of 7.5×10^5 cells per well. For LDH assay and cell death detection, 24-well culture plates were used with a neuron density of 2.5×10^5 cells per well. Neurons of 14-17 days in vitro (DIV) were used for experiments. […] HEK 293 cells were maintained in DMEM (Invitrogen™) supplemented with 10% fetal bovine serum and 1% penicillin/streptomycin. For protein expression in cell lines, cells were transfected with Calcium Phosphate Transfection reagent (Promega™, San Luis Obispo, Calif., USA) and used 24 h later as described previously (Yang et al., 2009). The JNK inhibitor, L-JNKI, was purchased from Alexis Biochemicals™ (San Diego, Calif.). Thrombin was obtained from BIOPUR™ (Bubendorf, Switzerland). Other assay reagents without indication were obtained from Sigma™.
Neuronal cultures were challenged with indicated concentrations of NMDA for 1 h, followed by 24 h survival. The release of lactate dehydrogenase (LDH) was measured with an in vitro toxicology assay kit (Sigma™) according to the manufacturer's instructions. Spectrophotometric measurement was performed on a Multilabel Plate Reader (Envision™ 2103, Perkin Elmer™). The LDH reading represents the primary absorbance at a wavelength of 490 nm after subtraction of background absorbance at 690 nm. LDH readings were then converted to a percentage of neuronal death by dividing by the readings from cultures incubated with 1% triton for 15 min representing total LDH. Following the LDH assay, propidium iodide (PI) (Sigma™) was added to the medium at a final concentration of 1 μg/ml and neurons were stained for 30 min at 30° C. After fixation with 4% paraformaldehyde, neurons were washed with 1×PBS and stained with Hoechst™ 33342 (Sigma™). The fluorescence of PI and Hoechst™ were examined with laser microscopy and analyzed with ImageJ™.

JNK3 = molecular target: T1, JNK3 (Rattus norvegicus, UniProt P49187); assay: kinase assay (KA) on JNK3 immunoprecipitated from cell lysates; type: cell-based; conditions: for JNK3 activity normalized to 0 h: NMDA + NIMoE
T1 construct: cell lysates were prepared and JNK was immunoprecipitated with specific antibodies; endogenous in cells; host or cells: rat primary neuronal cultures; JNK3 immunoprecipitated from lysate
Description: JNK activity was measured with an in vitro kinase assay as described elsewhere (see, for e.g.: Khatlani et al., 2007). Briefly, cell lysates were prepared and JNK was immunoprecipitated with specific antibodies. The immnoprecipitates were then resuspended in 1× kinase buffer (Cell Signaling Technology™) supplemented with 200 μM ATP and 250 μg/ml GST-c-jun (1-89), and incubated at 30° C. for 30 min. Reactions were terminated by the addition of SDS-PAGE sample buffer. Phosphorylated c-jun was resolved by SDS-PAGE and detected with anti-p-c-jun.

caspase-3 = assay: NMDA-induced caspase-3 cleavage in neurons; type: cell-based, rat; conditions: neuronal cultures

T1 sequence (P49187 whole entry): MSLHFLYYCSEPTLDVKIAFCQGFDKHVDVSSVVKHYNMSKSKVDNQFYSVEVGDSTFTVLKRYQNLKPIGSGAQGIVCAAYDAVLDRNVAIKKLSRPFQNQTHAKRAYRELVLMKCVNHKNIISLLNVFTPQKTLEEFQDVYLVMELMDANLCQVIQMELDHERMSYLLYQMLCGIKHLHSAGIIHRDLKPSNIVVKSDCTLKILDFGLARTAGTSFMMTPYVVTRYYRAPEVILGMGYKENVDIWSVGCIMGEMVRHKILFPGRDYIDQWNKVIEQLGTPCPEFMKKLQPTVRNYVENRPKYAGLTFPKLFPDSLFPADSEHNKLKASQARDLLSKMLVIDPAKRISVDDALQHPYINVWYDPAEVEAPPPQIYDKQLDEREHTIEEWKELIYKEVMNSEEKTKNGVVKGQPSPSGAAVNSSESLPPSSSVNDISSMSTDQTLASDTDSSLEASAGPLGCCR

| Sequence | adhesive removal test (ART), contralateral side ([1]; scrambled control peptide group) | total infarct volume ([2]; scrambled control peptide group, injection time not given) | excitotoxicity-induced cell death as measured by LDH release and PI staining (neuronal cultures) | enhancement of JNK3 activity induced by NMDA (JNK3; neuronal cultures) | adhesive removal test (ART), contralateral side ([1]; injection +2 h) | adhesive removal test (ART), contralateral side ([1]; injection +4 h) | adhesive removal test (ART), contralateral side ([1]; injection −0.5 h) | protection of neurons over NMDA concentrations (neuronal cultures; NMDA 10 μM to 100 μM) | NMDA-induced caspase-3 cleavage (caspase-3) | JNK3 activity normalized to 0 h (JNK3; 0.5 h) | JNK3 activity normalized to 0 h (JNK3; 1 h) | JNK3 basal activity (JNK3; neuronal cultures) | JNK3 basal activity, fold change to control (JNK3; pretreatment of cells 1 μM for 2 h) | somatosensory functions in ART ([1]; MCAo rats) | infarct volume compared with non-treated, saline-treated and scramble peptide-treated groups ([2]; post-surgical interventions at 2 h or 4 h) | total infarct volume ([2]; single i.v. injection +2 h after MCAo onset) | total infarct volume ([2]; single i.v. injection +4 h after MCAo onset) | total infarct volume ([2]; single i.v. injection −0.5 h (before MCAo onset), control 240.70±35.67) | reduction of total infarct size ([2]; single intravenous injection 30 min before MCAo) |
| --- | --- | --- | --- | --- | --- | --- | --- | --- | --- | --- | --- | --- | --- | --- | --- | --- | --- | --- | --- |
| HRYRWLTDLLSMVTTPAAPM (NIMoEscr scrambled NIMoE) [negative control peptide resulting from a scrambled NIMoE, reference compound] | 10.80 ± 2.06 s | 212.60±37.6 mm^3 | no protective effects | did not selectively block enhancement | – | – | – | – | – | – | – | – | – | – | – | – | – | – | – |
| MTPLMWAAYRTHSVDPTRLL (listed as Homo sapiens) [NIMoE, peptide comprising motif-E of zD17, fused to the cell-membrane transduction domain of HIV-1 Tat for cell experiments] | – | – | significantly prevented | selectively blocked the enhancement | 62.1 ± 8.60 s | 60.83 ± 8.13 s | 48.62 ± 8.24 s | protected neurons against a broad range of NMDA concentrations | effectively blocked | 90.6±5.3% | 47.0±17.6% | no effect | 0.89±0.10 fold | – | – | – | – | – | – |
| WAAYRTHSVD (listed as Homo sapiens) [NIMoEsh, shorter 10mer of NIMoE, primarily the loop region of motif-E (zD17 196-205)] | – | – | significantly prevented | – | – | – | – | – | effectively blocked | – | – | – | – | large preservation of somatosensory functions | effective protection for the ischemic brain | 41.95±8.22 mm^3 | 78.74±28.50 mm^3 | 43.43±9.82 mm^3 | about 80% |
